Results published in patent publication US20240156717A1, “COMPOSITION FOR ENHANCING SKIN WHITENING EFFECT ACCORDING TO AUTOPHAGY ACTIVITY WITH NYPA FRUTICANS EXTRACT AS AN ACTIVE INGREDIENT” (KYUNGPOOK NATIONAL UNIVERSITY INDUSTRY - ACADEMIC …, priority 2022, published 2024).

How the values were obtained:
Format in all cases: cell-based
[1] = test system: Mouse melanocytes (Melan-a); assay: Melanin content with rapamycin (autophagy inducer) or bafilomycin (autophagy inhibitor); conditions: bafilomycin (autophagy inhibitor) treatment, FIG. 8
Protocol: (§1) Mouse melanocytes (Melan-a) were inoculated into a 24-well plate at 1×10^5 cells/mL and cultured overnight. Thereafter, the medium was replaced with a new medium containing 100 μM IBMX (melanogenesis promoter) and 10 μg/mL and 100 μg/mL of the Nypa fruticans extract of the present disclosure, and reacted for 72 hours. Thereafter, the cells were treated with rapamycin (autophagy inducer) or bafilomycin (autophagy inhibitor), and the melanin content was evaluated.

[2] = test system: Mouse melanocytes (Melan-a); assay: Melanin content analysis in IBMX-treated melanocytes; conditions: 72 hours, FIG. 2
Protocol: as §1, with “hours, and the existing medium was washed.” for “hours.”, “washed twice” for “treated”, “PBS” for “rapamycin (autophagy inducer) or bafilomycin (autophagy inhibitor),”, “dissolved in 1 N NaOH.” for “the melanin content was evaluated.”
The melanin content was analyzed at 405 nm with a spectrophotometer, and arbutin was used as a positive control group.

[3] = test system: melanogenesis-related genes (TYR, TYRP-1, TYRP-2, MITF, MC1R) in mouse melanocytes (Melan-a); assay: Melanogenesis inhibitory effect (RT-PCR), melanogenesis-related mRNA expression; conditions: IBMX treatment alone, FIG. 3
Protocol: as §1, with “hours, and the existing medium was washed.” for “hours.”, “washed twice” for “treated”, “PBS” for “rapamycin (autophagy inducer) or bafilomycin (autophagy inhibitor),”, “dissolved in 1 N NaOH.” for “the melanin content was evaluated.”
In melanogenesis, tyrosinase (TYR), tyrosinase-related protein-1 (TYRP-1) and tyrosinase-related protein-2 (TYRP-2) were key factors. […] In the experiment, phosphorylated CREB was evaluated as a transcription factor and melanogenesis-related genes such as tyrosinase, TYRP-1, TYRP-2, MITF, and MC1R in mouse melanocytes (Melan-a) to confirm a melanogenesis inhibitory effect.
Total RNA (2 μg) was extracted from the mouse melanocytes (Melan-a) using TRIzol (Invitrogen Co., Carlsbad, CA, USA). […] Quantification of bands was calculated using Image Lab™ software version 5.2.1 (Bio-Rad Laboratories, CA, USA).

[4] = test system: melanogenesis-related proteins (TYR, TYRP-2, MITF) in mouse melanocytes (Melan-a); assay: Melanogenesis inhibitory effect (Western blot), melanogenesis-related protein expression; conditions: IBMX treatment alone, FIG. 4
Protocol: as §1, with “hours, and the existing medium was washed.” for “hours.”, “washed twice” for “treated”, “PBS” for “rapamycin (autophagy inducer) or bafilomycin (autophagy inhibitor),”, “dissolved in 1 N NaOH.” for “the melanin content was evaluated.”
Mouse melanocytes (Melan-a) were lysed with a RIPA buffer (ELPIS Biotech. Inc., Korea) containing protease inhibitor cocktail I (P8340; Sigma-Aldrich Korea) and phosphatase inhibitor cocktail II (P5726; Sigma-Aldrich Korea) and the extracted proteins were quantified using a Bradford protein method. Each protein was separated by 10% SDS-PAGE, and then transferred to a nitrocellulose (NC) membrane (0.45 μm; 1620115; Bio-Rad, Munich, Germany) and blocked with 5% skim milk or BSA in TBST for 1 hour. The membrane was cultured overnight with primary antibodies at 4° C. The membrane was washed four times at 15-minute intervals, and then reacted with anti-mouse or rabbit IgG-HRP as a secondary antibody. The proteins were detected using the ECL Solution System (ChemiDoc™ XRS+; Bio-Rad), and protein bands were quantified using Image Lab™ software (Bio-Rad Laboratories, CA, USA).

Q: How did the “effect on melanin content” value [1] turn out when CO/C1=C\C(C)=C\[C@@H](C)[C@@H](O)[C@@H](C)C/C(C)=C/C=C/[C@H](OC)[C@@H]([C@@H](C)[C@@H](O)[C@H](C)[C@@]2(O)C[C@@H](O)[C@H](C)[C@@H](C(C)C)O2)OC1=O [bafilomycin] was run?
A: did not affect

Q: With CC(C)Cn1c(=O)n(C)c(=O)c2[nH]cnc21 [IBMX] as the molecule, how does the “increase of melanin content compared to IBMX-untreated control group” value ([2]; 100 μM IBMX, absorbance 405 nm) read?
A: about 1.5 times

Q: And the “melanogenesis-related mRNA expression” value [3]?
A: increased

Q: And the melanogenesis-related protein levels [4]?
A: increased

Q: How did the “melanin content reduction effect” value ([2]; IBMX-treated Melan-a, extract 100 μg/mL, arbutin positive control) turn out when OC[C@H]1O[C@@H](Oc2ccc(O)cc2)[C@H](O)[C@@H](O)[C@@H]1O [arbutin] was run?
A: melanin content reduction effect
